How the values were obtained:
KRAS^G12C [1] = molecular target: T1, KRAS^G12C (Homo sapiens, UniProt P01116, G12C); experiment: KRAS^G12C engagement and degradation by immunoblot in SW1573 cells; format: cell-based; design: MRTX849-VHL bifunctional compounds engage and degrade endogenous KRAS^G12C in NCI-H2030 cells; endogenous in cells; host or cells: NCI-H2030, NCI-H358, MIA PaCa-2, SW1573, NCI-H23; conditions: for KRAS, two-way ANOVA significance vs DMSO: FIG. 11
Protocol: NCI-H2030 (CRL-5914), MIA PaCa-2 (CRL-1420), NCI-H23 (CRL-5800), NCI-H358 (CRL-5807), and HCT-116 (CCL-247) cells were obtained from ATCC, expanded immediately, and frozen down. Vials were thawed and used within 20 passages. SW1573 cells were a gift from Arvinas and were handled in the same manner. NCI-H2030, NCI-H23, and NCI-H358 were cultured in RPMI (ATCC30-2001) supplemented with 10% FBS (Biological Industries; cat. no. S1480) and 1% Penicillin-Streptomycin (ThermoFisher; cat. no. 15140122). HCT-116 cells were maintained in high glucose DMEM (ThermoFisher; cat. no. 11965084) supplemented as above. MIA PaCa-2 cells were cultured in high glucose DMEM supplemented with 10% FBS, 2.5% horse serum (ThermoFisher; cat. no. 26050-088; lot 2109875), and 1% Penicillin-Streptomycin. SW1573 cells were maintained in DMEM/F12 Nutrient Mix with GlutaMAX supplement (ThermoFisher; cat. no. 10565018) with 10% FBS and 1% Penicillin-Streptomycin added. DPBS (ThermoFisher; cat. no. 14190250) was used to wash cells and 0.25% Trypsin-EDTA (ThermoFisher; cat. no. […]) was used to detach cells for passaging. […] The VHL ligand was generously provided by Arvinas.
Between 2.5×10^5 and 6.0×10^5 cells were seeded into 6-well plates (Corning; cat. no. 353046). The next day, media was removed and cells were treated with 2.5 μM LC-2 for 1, 2, 4, 8, 12, or 24 hours. […] For 24-hour time course experiments, cells were treated at the indicated times and concurrently lysed in RIPA buffer supplemented as described previously. For longer time course experiments and time courses in which cells were treated with LC-2 or LC-2 Epimer, cells were concurrently treated with either compound, then lysed by scraping in RIPA buffer at the indicated time points.
Cell lysates were clarified at 21000×g for 15 mins at 4° C. Protein levels were quantified using a 50:1 mixture of bicinchoninic acid solution (Millipore Sigma; cat. no. B9643) and 4% (w/v) copper(II) sulfate solution (Millipore Sigma; cat. no. C2284) incubated at 37° C. for 30 mins. Absorbance values at 560 nm were read on an EnVision 2101 Multilabel Reader (PerkinElmer). Proteins were separated using 26 well Criterion TGX precast 4-15% (cat. no. 5671085) or 8-16% (cat. no. 5671105) gradient midi gels. After separation, proteins were transferred to nitrocellulose or PVDF membranes at 76 V for 2 hours at 4° C. Blots were then blocked in 5% milk in tris-buffered saline with Tween-20 (TBST; 20 mM Tris, 150 mM NaCl, 0.02% Tween-20). After blocking, blots were incubated in primary antibody overnight (12-18 hours) at 4° C. or for 2 hours at room temperature with mild agitation at the manufacturer's indicated dilution in either 5% milk or 5% BSA in TBST. Blots were then washed thrice with TBST for 5 mins at room temperature. After washing, blots were incubated with 1:5,000-1:10,000 of donkey anti-rabbit (GE Life Sciences; NA934) or sheep anti-mouse (GE Life Sciences; NA931) secondary antibody diluted in 5% milk for 1 hour at room temperature with mild agitation. Blots were again washed thrice with TBST for 5 mins. Chemiluminescent signal was generated using Amersham ECL Prime Western Blotting Detection Reagant (GE Life Sciences; cat. no. RPN2232) or SuperSignal West Femto Maximum Sensitivity Substrate (ThermoFisher; cat. no. 34095). Images were obtained using a Bio-Rad ChemiDoc Imager. Fluorescent α-tubulin images were collected with the Bio-Rad ChemiDoc Imager using an Alexa488 filter. The primary antibodies used in this work include: KRAS (LSBio; clone 2C1; cat. no. LS-C175665), p-p42/44 MAPK (phospho T202/Y204) (pErk; Cell Signaling Technologies (CST); cat. no. 4370S or 9106S), p42/44 MAPK (Erk1/2; CST; cat. no. 4695S), alpha-tubulin (CST; 2144S), and alpha-tubulin w/AlexaFluor488 (Millipore; cat. no. 16-232).
Band intensities were quantified using BioRad's Image Lab Software. […]

KRAS^G12C [2] = molecular target: T1, KRAS^G12C; experiment: Engagement and degradation of endogenous KRAS^G12C in NCI-H2030 cells (blot quantitation); format: cell-based; design: MRTX849-VHL bifunctional compounds engage and degrade endogenous KRAS^G12C in NCI-H2030 cells; endogenous in cells; host or cells: NCI-H2030

Row | Structure (SMILES) | duration of KRAS degradation (KRAS^G12C [1]; SW1573, 2.5 μM) | time to maximal KRAS degradation (KRAS^G12C [1]; SW1573, 2.5 μM, 6, 24, 48, 72 hours) | KRAS, two-way ANOVA significance vs DMSO (KRAS^G12C [1]; SW1573, 2.5 μM, 1 hour) | KRAS, two-way ANOVA significance vs DMSO (KRAS^G12C [1]; SW1573, 2.5 μM, 2 hours) | KRAS, two-way ANOVA significance vs DMSO (KRAS^G12C [1]; SW1573, 2.5 μM, 4 hours) | KRAS, two-way ANOVA significance vs DMSO (KRAS^G12C [1]; SW1573, 2.5 μM, 8 hours) | KRAS, two-way ANOVA significance vs DMSO (KRAS^G12C [1]; SW1573, 2.5 μM, 12 hours) | time to maximal degradation (KRAS^G12C [1]; SW1573, 2.5 μM, 24 hour time course) | KRAS, two-way ANOVA significance vs DMSO (KRAS^G12C [1]; SW1573, 2.5 μM, 24 hours) | DC50 (KRAS^G12C [1]; SW1573, homozygous KRAS^G12C) | Dmax (KRAS^G12C [1]; SW1573, homozygous KRAS^G12C) | rescue of induced KRAS^G12C degradation (mechanism) (KRAS^G12C [2]; VHL ligand competition, epoxomicin, MLN924 (FIG. 5A)) | degradation of KRAS^G12C (KRAS^G12C [2]; dose response (FIG. 2C)) | maximal KRAS^G12C degradation maintained up to (KRAS^G12C [2]; time course (FIG. 6A)) | time to maximal KRAS^G12C degradation (KRAS^G12C [2]; time course (FIG. 6A)) | time to near maximal engagement (KRAS^G12C [1]; SW1573, 2.5 μM) | KRAS^G12C engagement and protein levels (KRAS^G12C [1]; SW1573, longer time course (FIG. 8)) | induction of KRAS^G12C degradation (KRAS^G12C [2]; 2.5 μM (FIG. 5A))
1 | C=C(F)C(=O)N1CCN(c2nc(OC[C@@H]3CCCN3CCCOCCC(=O)N[C@H](C(=O)N3C[C@H](O)C[C@H]3C(=O)NCc3ccc(-c4scnc4C)cc3)C(C)(C)C)nc3c2CCN(c2cccc4cccc(Cl)c24)C3)C[C@@H]1CC#N [LC-2, (2S,4R)-1-((S)-2-(3-(3-((S)-2-(((7-(8-chloronaphthalen-1-yl)-4-((S)-3-(cyanomethyl)-4-(2-fluoroacryloyl)piperazin-1-yl)-5,6,7,8-tetrahydropyrido[3,4-d]pyrimidin-2-yl)oxy)methyl)pyrrolidin-1-yl)propoxy)propanamido)-3,3-dimethylbutanoyl)-4-hydroxy-N-(4-(4-methylthiazol-5-yl)benzyl)pyrrolidine-2-carboxamide] | sustained up to 72 hours | ≤ 24 h | N.S. | N.S. | N.S. | ** (** p < 0.01) | ** (** p < 0.01) | 12 h | *** (*** p < 0.005) | 760 ± 300 nM | > 85% | rescued by VHL ligand competition, proteasome inhibition with epoxomicin (Epox), and neddylation inhibition with MLN924 (MLN) | degrades KRAS^G12C in a dose dependent manner | 24 h | ≤ 8 h | – | – | –
2 | C=C(F)C(=O)N1CCN(c2nc(OC[C@@H]3CCCN3CCCOCCC(=O)N[C@H](C(=O)N3C[C@@H](O)C[C@H]3C(=O)NCc3ccc(-c4scnc4C)cc3)C(C)(C)C)nc3c2CCN(c2cccc4cccc(Cl)c24)C3)C[C@@H]1CC#N [LC-2 Epimer, (2S,4S)-1-((S)-2-(3-(3-((S)-2-(((7-(8-chloronaphthalen-1-yl)-4-((S)-3-(cyanomethyl)-4-(2-fluoroacryloyl)piperazin-1-yl)-5,6,7,8-tetrahydropyrido[3,4-d]pyrimidin-2-yl)oxy)methyl)pyrrolidin-1-yl)propoxy)propanamido)-3,3-dimethylbutanoyl)-4-hydroxy-N-(4-(4-methylthiazol-5-yl)benzyl)pyrrolidine-2-carboxamide] | – | – | – | – | – | – | – | – | – | – | – | – | – | – | – | 1 h | fully engaged KRAS^G12C in SW1573 cells, but did not decrease protein levels | does not induce KRAS^G12C degradation
